Assay results published in patent publication US20230103300A1, “TOPICAL PHARMACEUTICAL COMPOSITION IN GEL FORM COMPRISING AT LEAST AMI[…] USE IN THE TREATMENT OF CORONAVIRUS-INDUCED NEUROPATHIC PAIN” (AlgoTherapeutix, priority 2021, published 2023).

Assay: Comparative ex vivo study of the percutaneous absorption of amitriptyline (Frantz cell)
Assay type: in vitro ADME
Settings: ex vivo human skin, topical application
Description: Comparative ex vivo study of the percutaneous absorption of amitriptyline in a formulation A in aqueous gel form (invention) and in a formulation B in cream form (comparative).
Each of compositions A and B was applied on separate human skin samples. For each composition, the experiment was repeated 3 times with 3 skin samples from 3 different donors, i.e., 9 samples.
The skin samples are mounted in a Frantz cell and are heated to a surface temperature of 32° C.±1° C.
Composition A or B is spread evenly using a spatula on each skin sample at a rate of 10 mg per cell, corresponding to 5 mg/cm^2 of skin.
The skin samples are rinsed 16 hours after application.
Each skin sample was placed with a tweezers on a paper towel (dermis facing downward).
The stratum corneum is removed using adhesive strips.
After removing the stratum corneum, the sample is perforated. The epidermis is then separated from the dermis. Each of them is placed in separate bottles.
The different samples were then extracted.

CN(C)CCC=C1c2ccccc2CCc2ccccc21 [amitriptyline, Amitriptyline]
systemic passage of amitriptyline: less than 0.1 % of the administered dose
